# Laboratory results taken from patent US20230203081A1, “LINCOSAMIDE ANTIBIOTICS AND USES THEREOF” (President and Fellows of Harvard College, priority 2020, published 2023).
# Test system: broad panel of different clinical isolates
# Test: microbe, parasite or virus in culture
# Format: cell-based
# Procedure, shortened: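 Isolates other than streptococci and anaerobes, which had their own procedures, were grown overnight at 35° C on tryptic soy agar with 5% sheep blood. Suspensions were then diluted to a final inoculum of 5×10^5 CFU/mL in broth microdilution wells.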
compound,measurement,setting,value
CSC1O[C@H]([C@H](NC(=O)[C@H]2NC[C@@H]3C[C@H](CC(C)C)CCO[C@H]32)[C@H](C)Cl)C(O)[C@@H](O)[C@H]1O (some centres unmarked) [FSA-513018b],MIC,"Enterococcus faecium, VRE, E. faecium HAV#319, Line R & Vanco R",≤ 0.06 µg/mL
same,MIC,"Enterococcus faecium, VRE, E. faecium HAV#320, Clinical",0.25 µg/mL
same,MIC,"Enterococcus faecium, VRE, E. faecium HAV#326, Clinical",0.25 µg/mL
same,MIC,"Escherichia coli, E. coli HAV#501, Clinical",8 µg/mL
same,MIC,"Escherichia coli, E. coli HAV#503, Clinical",8 µg/mL
same,MIC,"Escherichia coli, E. coli HAV#511, Clinical",4 µg/mL
same,MIC,"Escherichia coli, E. coli HAV#512, Clinical",8 µg/mL
same,MIC,"Escherichia coli, E. coli HAV#513, Clinical",16 µg/mL
same,MIC,"Escherichia coli, E. coli HAV#514, Clinical",8 µg/mL
same,MIC,"Escherichia coli, E. coli HAV#516, ESBL-producing",8 µg/mL
same,MIC,"Haemophilus influenzae, ATCC9007, H. influenzae HAV#376, ATCC-9007",0.5 µg/mL
same,MIC,"K. pneumnoniae HAV#402, FQ-R",16 µg/mL
same,MIC,"Klebsiella pneumoniae, K. pneumoniae HAV#041, Clinical, KPC",32 µg/mL
same,MIC,"Klebsiella pneumoniae, K. pneumoniae HAV#402, FQ-R",16 µg/mL
same,MIC,"Klebsiella pneumoniae, K. pneumoniae HAV#404, Clinical",32 µg/mL
same,MIC,"Klebsiella pneumoniae, K. pneumoniae HAV#405, Clinical",16 µg/mL
same,MIC,"Klebsiella pneumoniae, K. pneumoniae HAV#406, Clinical",64 µg/mL
same,MIC,"Klebsiella pneumoniae, K. pneumoniae HAV#407, Clinical",128 µg/mL
same,MIC,"Klebsiella pneumoniae, K. pneumoniae HAV#408, Clinical",128 µg/mL
same,MIC,"Klebsiella pneumoniae, K. pneumoniae HAV#409, ESBL-producing",16 µg/mL
same,MIC,"Neisseria gonorrhoeae, N. gonorrhoeae HAV#701, Clinical",0.125 µg/mL
same,MIC,"Neisseria gonorrhoeae, N. gonorrhoeae HAV#702, Clinical",0.125 µg/mL
same,MIC,"Staphylococcus aureus, MRSA, S. aureus HAV#218, Line R",0.125 µg/mL
same,MIC,"Staphylococcus aureus, MRSA, S. aureus HAV#220, Line R",> 128 µg/mL
same,MIC,"Staphylococcus aureus, MSSA, S. aureus HAV#219, Line R",> 128 µg/mL
same,MIC,"Staphylococcus aureus, S. aureus HAV#051, mecA, norA, spcl, ermA, aad1, aac6′-aph2″",≤ 0.03 µg/mL
same,MIC,"Staphylococcus aureus, S. aureus HAV#052, mecA, norA, fosB, blaZ",≤ 0.03 µg/mL
same,MIC,"Staphylococcus aureus, S. aureus HAV#053 mecA, norA, fosB",≤ 0.03 µg/mL
same,MIC,"Staphylococcus aureus, S. aureus HAV#211, Clinical",2 µg/mL
same,MIC,"Staphylococcus aureus, S. aureus HAV#212, Clinical",0.06 µg/mL
same,MIC,"Staphylococcus aureus, S. aureus HAV#213, Clinical",0.06 µg/mL
same,MIC,"Staphylococcus aureus, S. aureus HAV#214, Clinical",0.03 µg/mL
same,MIC,"Staphylococcus aureus, S. aureus HAV#215, Clinical",0.06 µg/mL
same,MIC,"Staphylococcus aureus, S. aureus HAV#216, Clinical, cfr",2 µg/mL
same,MIC,"Staphylococcus aureus, VISA, S. aureus HAV#203, Clinical (VISA)",1 µg/mL
same,MIC,"Staphylococcus epidermidis, S. epidermidis HAV# 275 Clinical, cfr",8 µg/mL
same,MIC,"Staphylococcus epidermidis, S. epidermidis HAV# 276, cfr",> 16 µg/mL
same,MIC,"Staphylococcus epidermidis, S. epidermidis HAV#277, Line R",16 µg/mL
same,MIC,"Staphylococcus epidermidis, S. epidermidis HAV#278 Line R",32 µg/mL
same,MIC,"Staphylococcus epidermidis, S. epidermidis HAV#279, Line R",0.125 µg/mL
same,MIC,"Staphylococcus haemolyticus, S. haemolyticus 5052, Line R & Methicillin R",0.06 µg/mL
same,MIC,"Staphylococcus haemolyticus, S. haemolyticus HAV#252, Line R & Methicillin R",0.125 µg/mL
same,MIC,"Streptococcus pneumoniae, ATCC700673, S. pneumoniae HAV#352, ATCC 700673, MDR",0.5 µg/mL
same,MIC,"Streptococcus pneumoniae, ATCCBAA255, S. pneumoniae HAV#354, ATCC-BAA-255",0.125 µg/mL
same,MIC,"Streptococcus pneumoniae, ATCCBAA334, S. pneumoniae HAV#353, ATCC-BAA-334",0.125 µg/mL
same,MIC,"Streptococcus pneumoniae, S. pneumoniae HAV#356, Clinical",0.25 µg/mL
same,MIC,"Streptococcus pneumoniae, S. pneumoniae HAV#358, Clinical",0.125 µg/mL
